# From ChEMBL document CHEMBL5518237, “Design of Novel 2-Phenylquinazolin-4-amines as Selective CYP1B1 Inhibitors for Overcoming Paclitaxel Resistance in A549 Cells” (J Med Chem, 2024)
# Calls of active or inactive are those of the source. No cut-off for these calls is given here.
# How the values were obtained:
# [1] = molecular target: T1, Cytochrome P450 1A1 (Homo sapiens, UniProt P04798); assay: Inhibition of human recombinant CYP1A1 using 7-ethoxyresorufin as substrate preincubated with enzyme for 5 mins followed by fluorescent substrate and NADPH addition and measured after 15 mins by EROD assay; type: ADME
# T1 sequence (P04798 whole entry): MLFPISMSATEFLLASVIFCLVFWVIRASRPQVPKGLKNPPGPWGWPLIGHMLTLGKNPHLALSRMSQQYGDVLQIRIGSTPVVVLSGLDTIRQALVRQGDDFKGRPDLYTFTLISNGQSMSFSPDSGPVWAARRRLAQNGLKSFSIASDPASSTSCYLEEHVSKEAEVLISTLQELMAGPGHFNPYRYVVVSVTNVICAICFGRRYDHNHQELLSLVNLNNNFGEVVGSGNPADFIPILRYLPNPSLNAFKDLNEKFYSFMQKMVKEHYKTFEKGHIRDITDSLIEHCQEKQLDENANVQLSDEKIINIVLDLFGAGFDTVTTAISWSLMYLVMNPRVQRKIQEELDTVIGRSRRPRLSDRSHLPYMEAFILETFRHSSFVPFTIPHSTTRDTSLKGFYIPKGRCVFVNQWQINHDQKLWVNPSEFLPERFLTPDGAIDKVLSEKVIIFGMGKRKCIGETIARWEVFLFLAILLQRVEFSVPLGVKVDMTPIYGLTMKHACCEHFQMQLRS
# [2] = (§1) Selectivity ratio of IC50 for Inhibition of human recombinant CYP1A1 to IC50 for Inhibition of human recombinant CYP1B1; type: ADME; conditions: recombinant enzyme
# [3] = molecular target: T2, Cytochrome P450 1A2 (Homo sapiens, UniProt P05177); assay: Inhibition of human recombinant CYP1A2 using 7-ethoxyresorufin as substrate preincubated with enzyme for 5 mins followed by fluorescent substrate and NADPH addition and measured after 50 mins by EROD assay; type: ADME
# T2 sequence (P05177 whole entry): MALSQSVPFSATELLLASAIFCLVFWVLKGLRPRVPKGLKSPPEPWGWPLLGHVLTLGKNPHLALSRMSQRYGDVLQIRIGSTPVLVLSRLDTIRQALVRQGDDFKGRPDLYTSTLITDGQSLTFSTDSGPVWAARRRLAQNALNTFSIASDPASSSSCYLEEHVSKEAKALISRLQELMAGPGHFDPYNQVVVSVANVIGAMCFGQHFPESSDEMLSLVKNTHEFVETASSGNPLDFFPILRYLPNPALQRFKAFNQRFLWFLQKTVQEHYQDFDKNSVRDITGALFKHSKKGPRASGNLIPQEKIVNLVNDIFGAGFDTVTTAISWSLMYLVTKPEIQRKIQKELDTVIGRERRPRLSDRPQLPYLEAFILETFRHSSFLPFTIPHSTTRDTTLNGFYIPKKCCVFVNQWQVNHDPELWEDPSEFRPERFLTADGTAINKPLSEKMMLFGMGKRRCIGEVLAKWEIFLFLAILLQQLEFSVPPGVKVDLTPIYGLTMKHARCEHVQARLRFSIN
# [4] = Drug uptake in human HCT-116 cells using radiolabeled compound at 0.037 MBq incubated for 120 mins by gamma-counting analysis; type: ADME, cell-based; conditions: hct-116, 2 h
# [5] = (§2) Selectivity ratio of IC50 for Inhibition of human recombinant CYP1A2 to IC50 for Inhibition of human recombinant CYP1B1; type: ADME; conditions: recombinant enzyme
# [6] = n-Octanol/PBS partition coefficient, log D of the radiolabeled compound at 0.37 MBq at pH 7.4 by gamma-counting analysis; type: physicochemical
# [7] = molecular target: T3, Cytochrome P450 1B1 (Homo sapiens, UniProt Q16678); assay: Inhibition of human recombinant CYP1B1 using 7-ethoxyresorufin as substrate preincubated with enzyme for 5 mins followed by fluorescent substrate and NADPH addition and measured after 35 mins by EROD assay; type: ADME
# T3 sequence (Q16678 whole entry): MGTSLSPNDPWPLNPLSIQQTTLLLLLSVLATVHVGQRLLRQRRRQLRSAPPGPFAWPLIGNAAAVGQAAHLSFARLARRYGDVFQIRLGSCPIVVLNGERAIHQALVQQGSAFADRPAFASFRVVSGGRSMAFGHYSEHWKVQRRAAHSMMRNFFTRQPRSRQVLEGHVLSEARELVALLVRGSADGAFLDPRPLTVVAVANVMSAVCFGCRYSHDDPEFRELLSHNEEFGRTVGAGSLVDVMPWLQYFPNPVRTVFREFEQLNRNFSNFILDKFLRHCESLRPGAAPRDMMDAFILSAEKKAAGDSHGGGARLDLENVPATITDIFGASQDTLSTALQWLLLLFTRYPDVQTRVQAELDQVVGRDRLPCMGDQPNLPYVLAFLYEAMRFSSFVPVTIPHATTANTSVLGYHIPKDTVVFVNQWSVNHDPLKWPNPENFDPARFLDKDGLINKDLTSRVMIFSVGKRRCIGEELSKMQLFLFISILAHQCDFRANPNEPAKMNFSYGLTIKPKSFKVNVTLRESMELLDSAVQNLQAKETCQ
# [8] = Drug uptake in human HEK293T cells using radiolabeled compound at 0.037 MBq incubated for 120 mins by gamma-counting analysis; type: ADME, cell-based; conditions: hek-293t, 2 h
# [9] = Drug uptake in human A549 cells using radiolabeled compound at 0.037 MBq incubated for 120 mins by gamma-counting analysis; type: ADME, cell-based; conditions: a549, 2 h
# [10] = tested on: CYP1A1 versus CYP1B1; assay: as §1; type: ADME; conditions: recombinant CYP1A1 and recombinant CYP1B1, read-out: Ratio IC50
# [11] = tested on: A549; assay: Cytotoxicity against human A549 cells assessed as reduction in cell viability at 0.625 to 20 uM incubated for 48 hrs by MTT assay; type: toxicity, cell-based; conditions: a549, 48 h, dose 0.625-20 µM
# [12] = tested on: HEK-293T; assay: Cytotoxicity against human HEK293T cells assessed as reduction in cell viability at 0.625 to 20 uM incubated for 48 hrs by MTT assay; type: toxicity, cell-based; conditions: dose 0.625-20 µM
# [13] = tested on: CYP1A2 versus CYP1B1; assay: as §2; type: ADME; conditions: recombinant CYP1A2 and recombinant CYP1B1, read-out: Ratio IC50
# [14] = tested on: A549; assay: Induction of apoptosis in DMBA-stimulated PTX resistant human A549 cells assessed as apoptosis rate at 5 uM incubated for 24 hrs by flow cytometry (reference value: 6.67 +/- 1.03%); type: functional
# [15] = n-Octanol/water partition coefficient, logP of the compound by HPLC analysis; type: physicochemical; conditions: n-octanol/water; read-out: logP
# [16] = molecular target: T4, CYP1B1 (Homo sapiens, UniProt Q16678); assay: Inhibition of human recombinant CYP1B1 using 7-ethoxyresorufin as substrate at 0.01 uM preincubated with enzyme for 5 mins followed by fluorescent substrate and NADPH addition and measured after 35 mins by EROD assay; type: ADME; conditions: recombinant CYP1B1, probe 7-ethoxyresorufin, time 40 min
# T4 sequence (Q16678 whole entry): T3 sequence (Q16678 whole entry)
# [17] = molecular target: T4, CYP1B1; assay: Inhibition of human recombinant CYP1B1 using 7-ethoxyresorufin as substrate at 1 uM preincubated with enzyme for 5 mins followed by fluorescent substrate and NADPH addition and measured after 35 mins by EROD assay; type: ADME; conditions: recombinant CYP1B1, probe 7-ethoxyresorufin, time 40 min
# [18] = Drug metabolism in Kunming mouse assessed as deiodination treated with radiolabeled compound at 0.37 MBq, iv measured after 120 mins by gamma-counting analysis; type: ADME, organism-based; conditions: in vivo, 2 h
# [19] = Drug uptake in intestine of mouse xenografted with human HCT-116 cells assessed as radioactive accumulation treated with radiolabeled compound at 0.37 MBq, iv measured after 240 mins by gamma-counting analysis; type: ADME, organism-based; conditions: in vivo, 4 h
# [20] = Drug uptake in Kunming mouse kidney assessed as radioactive accumulation treated with radiolabeled compound at 0.37 MBq, iv measured after 120 mins by gamma-counting analysis; type: ADME, organism-based; conditions: in vivo, 2 h
# [21] = Drug uptake in HCT-116 cells bearing mouse assessed as ratio of radioactive accumulation in tumor to muscle treated with radiolabeled compound at 0.37 MBq, iv measured after 240 mins by gamma-counting analysis; type: ADME, organism-based; conditions: in vivo, 4 h
# [22] = Drug uptake in Kunming mouse intestine assessed as radioactive accumulation treated with radiolabeled compound at 0.37 MBq, iv measured after 120 mins by gamma-counting analysis; type: ADME, organism-based; conditions: in vivo, 2 h
# [23] = Drug uptake in liver of mouse xenografted with human HCT-116 cells assessed as radioactive accumulation treated with radiolabeled compound at 0.37 MBq, iv measured after 240 mins by gamma-counting analysis; type: ADME, organism-based; conditions: in vivo, 4 h
# [24] = Drug uptake in kidney of mouse xenografted with human HCT-116 cells assessed as radioactive accumulation treated with radiolabeled compound at 0.37 MBq, iv measured after 240 mins by gamma-counting analysis; type: ADME, organism-based; conditions: in vivo, 4 h
# [25] = Drug metabolism in mouse xenografted with human HCT-116 cells assessed as deiodination treated with radiolabeled compound at 0.37 MBq, iv measured after 240 mins by gamma-counting analysis; type: ADME, organism-based; conditions: 4 h
# [26] = Drug uptake in Kunming mouse lungs assessed as radioactive accumulation treated with radiolabeled compound at 0.37 MBq, iv measured after 120 mins by gamma-counting analysis; type: ADME, organism-based, Lung; conditions: in vivo, 2 h
# [27] = Drug uptake in Kunming mouse thyroid assessed as radioactive accumulation treated with radiolabeled compound at 0.37 MBq, iv measured after 120 mins by gamma-counting analysis; type: ADME, organism-based, Thyroid gland; conditions: in vivo, 2 h
# [28] = Drug uptake in HCT-116 cells bearing mouse assessed as ratio of radioactive accumulation in tumor to muscle treated with radiolabeled compound at 0.37 MBq, iv measured after 30 mins by gamma-counting analysis; type: ADME, organism-based; conditions: in vivo, 0.5 h
# [29] = Drug uptake in human HCT-116 cells using radiolabeled compound at 0.037 MBq incubated for 240 mins by gamma-counting analysis; type: ADME, cell-based; conditions: hct-116, 4 h
# [30] = tested on: A549; assay: Inhibition of tumor metastasis in DMBA-stimulated PTX resistant human A549 cells assessed as inhibition of cell migration by measuring decrease in crawling ability of cells at 2.5 to 10 uM incubated for 48 hrs by wound healing assay; type: functional, cell-based; conditions: dose 2.5-10 µM
# [31] = tested on: A549; assay: Reversal of DMBA-stimulated PTX resistance in human A549 cells assessed as decrease in cell viability at 1.25 to 10 uM incubated for 24 hrs in presence of DMBA and paclitaxel by MTT assay; type: functional, cell-based; conditions: dose 1.25-10 µM
Compound,IC50 [1] [nM],IC50 [3] [nM],Drug uptake [4],logD ([6]; octanol/water),IC50 [7] [nM],Drug uptake [8],Drug uptake [9],Ratio IC50 [2],Ratio IC50 [5],also measured
Cl.FCCNc1nc(-c2ccc(I)cc2)nc2ccccc12,33.2,604,,,0.15,,,,,"selectivity ratio [10]: 221; Activity [11]: Non-Toxic; Activity [12]: Non-Toxic; selectivity ratio [13]: 4030; Activity [14]: 21.05%; logP [15]: 3.91; inhibition at 35 min, 0.01 µM [16]: 90.1%; inhibition at 35 min, 1 µM [17]: 95.5%"
Nc1nc(-c2ccc(I)cc2)nc2ccccc12,5.74,1240,Active,3.24,,Active,Active,287,6.23 10^4No_unit,Drug metabolism [18]: Metabolite_Notdetected; Drug uptake [19]: Active; Drug uptake [20]: Active; Ratio [21]: 1.84; Drug uptake [22]: Active; Drug uptake [23]: Active; Drug uptake [24]: Active; Drug metabolism [25]: Metabolite_Notdetected; Drug uptake [26]: Active; Drug uptake [27]: Active; Ratio [28]: 1.27; Drug uptake [29]: 23.95%
FCCNc1nc(-c2ccc(I)cc2)nc2ccccc12 [listing 2 of 2 here],,,,,,,,,,inhibition [30]: Active; Activity [31]: Active

# Continued, in another order:
IC50 [1] [nM],IC50 [3] [nM],Drug uptake [4],logD ([6]; octanol/water),IC50 [7] [nM],Drug uptake [8],Drug uptake [9],Compound,Ratio IC50 [2],Ratio IC50 [5],also measured
26.5,1110,Active,3.55,0.000747,Active,Active,CNc1nc(-c2ccc(I)cc2)nc2ccccc12,3.54 10^4No_unit,1.49 10^6No_unit,
36.7,727,Active,,0.24,Active,Active,FCCNc1nc(-c2ccc(I)cc2)nc2ccccc12 [listing 1 of 2 here],151.87,3029.17,"logD ([6]; n-octanol/PBS, read-out: logD): 3.34"
